Where two headings read alike, the source gives them in different places.
Key:
^64Cu in blood = conditions: for Intravenously injected ^64Cu in the blood: Pre (before BC-TTM treatment)
Protocol: 15 minutes after intravenous administration of ^64Cu, a dynamic PET-MR scan was performed, followed by additional scans at 1, 2, 6, 20, 48, 54, and 68 hours. Venous blood samples were collected for quantitation of radioactivity at multiple time points.

copper [1] = test system: copper
Source text: These participants had all intake (food and drink) and output (urine and feces) collected from Day-4 through Day-1 (baseline), from Day 1 through Day 8, and Day 25 through Day 39.

copper [2] = conditions: Study 201, BC-TTM monotherapy, Week 24
[3] = human, in vivo

Question: With Bis-choline tetrathiomolybdate [BC-TTM] as the substance, how does the “Intravenously injected ^64Cu in the blood” value (from here on “Intravenously injected ^64Cu”) (^64Cu in blood; 20 hours) read?
Answer: 0.32 (0.06)

Question: And the “Intravenously injected ^64Cu” value (^64Cu in blood; 48 hours)?
Answer: 0.33

Question: And the “Intravenously injected ^64Cu” value (^64Cu in blood; 54 hours)?
Answer: 0.28

Question: And the “Intravenously injected ^64Cu” value (^64Cu in blood; 68 hours)?
Answer: 0.25

Question: And the “64Cu peak in blood and clearance from blood after treatment” value (^64Cu in blood; WD patients, FIG. 31)?
Answer: higher peak in the blood and its clearance from blood was delayed

Question: What about the “64Cu in the blood after versus before treatment” value (^64Cu in blood; WD patients, from 1 hour to 48 hours after intravenous 64Cu) of the same substance?
Answer: significantly more

Question: And the “Increase from Baseline in Directly Measured NCC, Mean (SD)” value (“Increase from Baseline … (SD)” for short) (copper [1]; Study 204, Day 1, 2 Hours Post-Dose)?
Answer: 0.5004 (0.7105) μmol/L

Question: And the “Increase from Baseline … (SD)” value (copper [1]; Study 204, Day 1, 4 Hours Post-Dose)?
Answer: 1.96 (1.804) μmol/L

Question: And the “Increase from Baseline … (SD)” value (copper [1]; Study 204, Day 1, 5 Hours Post-Dose)?
Answer: 2.719 (2.534) μmol/L

Question: What about the “Increase from Baseline … (SD)” value (copper [1]; Study 204, Day 1, 6 Hours Post-Dose) of the same substance?
Answer: 2.324 (2.086) μmol/L

Question: What about the “Increase from Baseline … (SD)” value (copper [1]; Study 204, Day 1, 8 Hours Post-Dose) of the same substance?
Answer: 2.402 (2.183) μmol/L

Question: And the “Increase from Baseline … (SD)” value (copper [1]; Study 204, Day 1, 12 Hours Post-Dose)?
Answer: 1.725 (1.575) μmol/L

Question: What about the “Increase from Baseline … (SD)” value (copper [1]; Study 204, Day 1, 24 Hours Post-Dose) of the same substance?
Answer: 1.063 (1.074) μmol/L

Question: What about the “Increase from Baseline … (SD)” value (copper [1]; Study 204, Day 4, Pre-Dose) of the same substance?
Answer: 2.677 (1.297) μmol/L

Question: What about the “Increase from Baseline … (SD)” value (copper [1]; Study 204, Day 5, Pre-Dose) of the same substance?
Answer: 3.144 (1.37) μmol/L

Question: What about the “Increase from Baseline … (SD)” value (copper [1]; Study 204, Day 6, Pre-Dose) of the same substance?
Answer: 3.574 (1.57) μmol/L

Question: And the “Increase from Baseline … (SD)” value (copper [1]; Study 204, Day 7, Pre-Dose)?
Answer: 3.7 (1.709) μmol/L

Question: And the “Increase from Baseline … (SD)” value (copper [1]; Study 204, Day 25, 2 Hours Post-Dose)?
Answer: 2.551 (1.063) μmol/L

Question: And the “Increase from Baseline … (SD)” value (copper [1]; Study 204, Day 25, 4 Hours Post-Dose)?
Answer: 3.443 (2.008) μmol/L

Question: And the “Increase from Baseline … (SD)” value (copper [1]; Study 204, Day 25, 5 Hours Post-Dose)?
Answer: 3.38 (2.478) μmol/L

Question: What about the “Increase from Baseline … (SD)” value (copper [1]; Study 204, Day 25, 6 Hours Post-Dose) of the same substance?
Answer: 4.44 (2.949) μmol/L

Question: What about the “Increase from Baseline … (SD)” value (copper [1]; Study 204, Day 25, 8 Hours Post-Dose) of the same substance?
Answer: 5.101 (2.491) μmol/L

Question: What about the “Increase from Baseline … (SD)” value (copper [1]; Study 204, Day 25, 12 Hours Post-Dose) of the same substance?
Answer: 4.917 (2.463) μmol/L

Question: What about the “Increase from Baseline … (SD)” value (copper [1]; Study 204, Day 25, 24 Hours Post-Dose) of the same substance?
Answer: 3.438 (1.754) μmol/L

Question: What about the “Increase from Baseline … (SD)” value (copper [1]; Study 204, Day 25, −0.5 Hours) of the same substance?
Answer: 2.121 (0.611) μmol/L

Question: And the “Increase from Baseline … (SD)” value (copper [1]; Study 204, Day 27, Pre-Dose)?
Answer: 2.767 (1.755) μmol/L

Question: And the “Increase from Baseline … (SD)” value (copper [1]; Study 204, Day 28, Pre-Dose)?
Answer: 2.327 (1.376) μmol/L

Question: And the “Increase from Baseline … (SD)” value (copper [1]; Study 204, Day 29, 2 Hours Post-Dose)?
Answer: 2.814 (0.884) μmol/L

Question: And the “Increase from Baseline … (SD)” value (copper [1]; Study 204, Day 29, 4 Hours Post-Dose)?
Answer: 3.38 (1.494) μmol/L

Question: And the “Increase from Baseline … (SD)” value (copper [1]; Study 204, Day 29, 5 Hours Post-Dose)?
Answer: 4.078 (1.939) μmol/L

Question: What about the “Increase from Baseline … (SD)” value (copper [1]; Study 204, Day 29, 6 Hours Post-Dose) of the same substance?
Answer: 4.686 (2.237) μmol/L

Question: And the “Increase from Baseline … (SD)” value (copper [1]; Study 204, Day 29, 8 Hours Post-Dose)?
Answer: 5.305 (2.311) μmol/L

Question: What about the “Increase from Baseline … (SD)” value (copper [1]; Study 204, Day 29, 12 Hours Post-Dose) of the same substance?
Answer: 4.749 (2.205) μmol/L

Question: And the “Increase from Baseline … (SD)” value (copper [1]; Study 204, Day 29, 24 Hours Post-Dose)?
Answer: 3.543 (1.397) μmol/L

Question: And the “Increase from Baseline … (SD)” value (copper [1]; Study 204, Day 29, −0.5 Hours)?
Answer: 2.662 (1.209) μmol/L

Question: And the “Increase from Baseline … (SD)” value (copper [1]; Study 204, Day 31, Pre-Dose)?
Answer: 4.121 (2.779) μmol/L

Question: What about the “Increase from Baseline … (SD)” value (copper [1]; Study 204, Day 32, Pre-Dose (N=1)) of the same substance?
Answer: 8.131 (NA) μmol/L

Question: And the “Increase from Baseline … (SD)” value (copper [1]; Study 204, Day 33, Pre-Dose)?
Answer: 4.231 (4.114) μmol/L

Question: What about the “Increase from Baseline … (SD)” value (copper [1]; Study 204, Day 34, Pre-Dose) of the same substance?
Answer: 4.103 (3.872) μmol/L

Question: And the “Increase from Baseline … (SD)” value (copper [1]; Study 204, Day 35, Pre-Dose)?
Answer: 4.49 (4.526) μmol/L

Question: What about the “Increase from Baseline … (SD)” value (copper [1]; Study 204, Day 36, Pre-Dose) of the same substance?
Answer: 3.465 (3.016) μmol/L

Question: And the “Increase from Baseline … (SD)” value (copper [1]; Study 204, Day 37, Pre-Dose)?
Answer: 4.168 (4.069) μmol/L

Question: And the “Increase from Baseline … (SD)” value (copper [1]; Study 204, Day 38, Pre-Dose (N=1))?
Answer: 7.643 (NA) μmol/L

Question: What about the “Increase from Baseline … (SD)” value (copper [1]; Study 204, Day 39, 2 Hours Post-Dose) of the same substance?
Answer: 3.816 (3.943) μmol/L

Question: And the “Increase from Baseline … (SD)” value (copper [1]; Study 204, Day 39, 4 Hours Post-Dose)?
Answer: 5.578 (5.922) μmol/L

Question: What about the “Increase from Baseline … (SD)” value (copper [1]; Study 204, Day 39, 5 Hours Post-Dose) of the same substance?
Answer: 6.26 (6.245) μmol/L

Question: And the “Increase from Baseline … (SD)” value (copper [1]; Study 204, Day 39, 6 Hours Post-Dose)?
Answer: 6.659 (5.704) μmol/L

Question: And the “Increase from Baseline … (SD)” value (copper [1]; Study 204, Day 39, 8 Hours Post-Dose)?
Answer: 7.32 (6.096) μmol/L

Question: What about the “Increase from Baseline … (SD)” value (copper [1]; Study 204, Day 39, 12 Hours Post-Dose) of the same substance?
Answer: 6.554 (4.695) μmol/L

Question: And the “Increase from Baseline … (SD)” value (copper [1]; Study 204, Day 39, 24 Hours Post-Dose)?
Answer: 4.545 (3.677) μmol/L

Question: And the “Increase from Baseline … (SD)” value (copper [1]; Study 204, Day 39, −0.5 Hours)?
Answer: 3.412 (3.688) μmol/L

Question: What about the “reduction of mean serum cNCCcorrected compared with baseline” value (copper [2]) of the same substance?
Answer: 72%

Question: What about the “covariate effect of age on plasma total molybdenum clearance” value [3] of the same substance?
Answer: age is not a significant covariate

— patent publication US20250082674A1, “METHODS OF TREATING COPPER METABOLISM-ASSOCIATED DISEASES OR DISORDERS” (priority 2021, published 2025)
